According to article PMC8311653, “Design, Synthesis, In Vitro and In Vivo Characterization of Selective NKCC1 Inhibitors for the Treatment of Core Symptoms in Down Syndrome” (Journal of Medicinal Chemistry, 2021):

Assays:
[1] = target: T1, NKCC1 (Homo sapiens, UniProt P55011); experiment: Cl- influx assay in NKCC1-transfected HEK293 cells; format: cell-based; details: for inhibition at 10 µM: HEK293, read-out: Inhibition 10 μM Cl- influx (%); for inhibition at 100 µM: HEK293, read-out: Inhibition 100 μM Cl- influx (%)
T1 construct: host or cells: HEK293
T1 sequence (P55011 1-1212): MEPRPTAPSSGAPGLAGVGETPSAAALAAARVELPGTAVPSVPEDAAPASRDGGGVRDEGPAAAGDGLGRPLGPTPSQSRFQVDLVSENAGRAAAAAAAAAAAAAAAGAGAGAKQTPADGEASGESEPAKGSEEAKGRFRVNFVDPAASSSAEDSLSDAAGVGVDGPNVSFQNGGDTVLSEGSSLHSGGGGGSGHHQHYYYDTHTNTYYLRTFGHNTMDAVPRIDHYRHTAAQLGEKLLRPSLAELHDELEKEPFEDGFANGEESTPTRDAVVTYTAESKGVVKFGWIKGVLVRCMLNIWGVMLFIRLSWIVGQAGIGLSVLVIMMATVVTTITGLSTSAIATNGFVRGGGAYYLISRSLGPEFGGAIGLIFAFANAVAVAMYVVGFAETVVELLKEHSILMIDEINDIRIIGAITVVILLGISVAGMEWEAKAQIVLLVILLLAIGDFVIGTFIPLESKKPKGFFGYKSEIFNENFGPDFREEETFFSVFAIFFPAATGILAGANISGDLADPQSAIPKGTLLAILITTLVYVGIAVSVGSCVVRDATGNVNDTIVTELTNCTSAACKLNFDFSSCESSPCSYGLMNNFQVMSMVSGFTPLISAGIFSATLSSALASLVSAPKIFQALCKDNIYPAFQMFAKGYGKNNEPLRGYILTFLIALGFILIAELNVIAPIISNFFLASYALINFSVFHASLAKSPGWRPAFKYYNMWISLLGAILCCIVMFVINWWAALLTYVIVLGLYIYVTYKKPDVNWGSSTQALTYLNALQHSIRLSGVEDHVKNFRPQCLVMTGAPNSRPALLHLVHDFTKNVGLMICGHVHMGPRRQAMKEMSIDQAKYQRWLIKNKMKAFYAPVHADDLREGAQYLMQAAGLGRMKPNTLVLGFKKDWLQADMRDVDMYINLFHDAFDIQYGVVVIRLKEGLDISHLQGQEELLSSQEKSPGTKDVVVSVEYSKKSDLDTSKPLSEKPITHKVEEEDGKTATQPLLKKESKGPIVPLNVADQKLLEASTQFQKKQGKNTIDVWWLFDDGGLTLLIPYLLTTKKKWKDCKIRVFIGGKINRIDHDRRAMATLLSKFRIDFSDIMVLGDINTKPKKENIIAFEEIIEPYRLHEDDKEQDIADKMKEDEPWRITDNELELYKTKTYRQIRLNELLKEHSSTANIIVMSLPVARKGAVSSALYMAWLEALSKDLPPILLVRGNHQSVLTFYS
Procedure: HEK293 cells were cultured in Dulbecco’s modified Eagle’s medium (DMEM) supplemented with 10% fetal bovine serum, 1% L-glutamine, 100 U/mL penicillin, and 100 μg/mL streptomycin and maintained at 37 °C in a 5% CO2 humidified atmosphere. To assess NKCC1 and NKCC2 activity (Cl^– influx assay), 3 million HEK cells were plated in a 10 cm cell-culture dish and transfected with a transfection mixture comprising 5 mL of DMEM, 4 mL of Opti-MEM, 8 μg of DNA plasmid coding for NKCC1 (PRK-NKCC1 obtained from Medical Research Council and the University of Dundee), NKCC2 (OriGene plasmid #RC216145) subcloned in PRK5 plasmid, or mock control (empty vector), together with 8 μg of a plasmid coding for the Cl^–-sensitive variant of the membrane-targeted fluorescent protein YFP, mbYFPQS (Addgene plasmid #80742),[53] and 32 μL of Lipofectamin 2000. To assess KCC2 activity (Tl influx assay), cells were transfected with 8 μg of KCC2[54] subcloned in the PRK5 plasmid or mock control (empty vector) and 16 μL of Lipofectamin 2000. After 4 h, the cells were collected and plated in 96-well black-walled, clear-bottomed plates at a density of 2.5 × 10^4. After 48 h, cells were used for the Cl^– or Tl influx assays. All reagents were purchased from Life Technologies, unless otherwise specified.
Transfected cells were treated with 10 μM or 100 μM bumetanide (as positive controls), DMSO (as the negative control), or with each of our compounds in 100 μL/well of a Cl^–-free hypotonic solution (67.5 mM Na^+ gluconate, 2.5 mM K^+ gluconate, 15 mM HEPES pH 7.4, 50 mM glucose, 1 mM Na2HPO4, 1 mM NaH2PO4, 1 mM MgSO4, and 1 mM CaSO4). After 30 min of incubation, plates were loaded into a Victor 3V (PerkinElmer) multiplate reader equipped with an automatic liquid injector system, and fluorescence of Cl^–-sensitive mbYFPQS was recorded with excitation at 485 nm and emission at 535 nm. For each well, fluorescence was first recorded for 20 s of the baseline and for 60 s after delivery of a NaCl concentrated solution (74 mM final concentration in the assay well). Fluorescence of Cl^–-sensitive mbYFPQS is inversely correlated to the intracellular Cl^– concentration;[53] therefore, chloride influx into the cells determined a decrease in mbYFPQS fluorescence. To represent the fluorescent traces in time, we normalized the fluorescence value for each time point to the average of the fluorescence value of the first 20 s of the baseline (ΔF/F0). To quantify the average effects as represented by the bar plots, we expressed the decrease in fluorescence upon NaCl application as the average of the last 10 s of ΔF/F0 normalized traces. Moreover, for each experiment, to account for the contribution of Cl^– changes that were dependent on transporters/exchangers other than NKCC1 or NKCC2, we subtracted the value of the last 10 s of ΔF/F0 normalized traces obtained from mock-transfected cells (either control or treated) from the respective ΔF/F0 value obtained from the cells transfected with NKCC1 or NKCC2. We then presented in the figures all the data as a percentage of the fluorescence decrease versus the value of the control DMSO.

[2] = system: WT and Ts65Dn mice; experiment: Diuresis analysis in metabolic cages; details: 0.6 mg kg-1 ip; adult WT and Ts65Dn mice; vs vehicle-treated mice
Procedure: A veterinarian was employed to maintain the health and comfort of the animals. Mice were housed in filtered cages in a temperature-controlled room with a 12:12 h dark/light cycle and with ad libitum access to water and food. All efforts were made to minimize animal suffering and use the lowest possible number of animals required to produce statistical relevant results, according to the “3Rs concept”. In this study, we used Ts65Dn mice maintained in their original genetic background[57] by crossing (more than 40 times) Ts65Dn female to C57BL/6JEi × C3SnHeSnJ (B6EiC3) F1 males (Jackson Laboratories). Ts65Dn mice were genotyped by PCR as previously described.[58] Only males were used for behavioral experiments. Ts65Dn and controls were randomly assigned to vehicle groups (2% DMSO in saline), bumetanide (Sigma, 0.6 mg kg^–1 body weight), or 40 (0.6 mg kg^–1 body weight) and treated daily for ∼21 days by intraperitoneal injection (i.p.). On the day of behavioral testing, injection was performed 1 h before the task began.

CN(C)S(=O)(=O)c1cc(C(=O)O)ccc1NCCCCCCCC(F)(F)F [Compound 1, 3-(-N,N-Dimethylsulfamoyl)-4-(8,8,8-trifluorooctylamino)benzoic Acid]
inhibition at 10 µM [1]: 37.1 ± 5%
inhibition at 100 µM [1]: 88.5 ± 1.7%

CN(C)S(=O)(=O)c1cc(C(=O)O)c(O)cc1NCCCCCCCC(F)(F)F [Compound 40, 5-(N,N-Dimethylsulfamoyl)-2-hydroxy-4-((8,8,8-trifluorooctyl)amino)benzoic Acid]
diuretic effect (urine volume collected for 2 h) [2]: did not induce any significant diuresis

CCCCNc1cc(C(=O)O)cc(S(N)(=O)=O)c1Oc1ccccc1 [bumetanide, reference compound]
inhibition at 10 µM [1]: 58.8 ± 5.6%
inhibition at 100 µM [1]: 71.7 ± 7%
diuretic effect (urine volume collected for 2 h) [2]: significantly increased the urine volume
